Marks after values point to notes of the source that are not given here. Ends that are not written are not given here.
Assays:
[1] = test system: Duck Hepatitis B Virus (DHBV); test: Chongqing duck hepatitis B model, serum DHBV DNA by dot-blot hybridization; format: in vivo, Chongqing ducks
Procedure: Chongqing duck hepatitis B model was set up and treated with peptides by intraperitoneal injection (50 μg/kg/day, once per day) for 4 weeks. The serum level of DHBV DNA was analyzed by serum dot-blot hybridization. Lamivudine and normal saline treatment was used as positive and negative control respectively. […] It is concluded that CMS001 at suitable dosage level can be used as a part, or on its own, for viral hepatitis infection management. One-day old Chongqing ducks were inoculated with 0.1 ml stock serum positive of Duck Hepatitis B Virus (DHBV) DNA (5×10^7 copy/ml) by intraperitoneal injection. One week later, blood samples were collected from the external jugular vein and infection was confirmed by dot-blot hybridization with DHBV DNA probe labeled with digoxin^[2]. The ducks were breed to 2 weeks old for entrance into the study. […] Treatment lasted for 4 weeks and observation continued for another one week after termination of treatment. 1 ml blood samples were drawn from the external jugular vein of the ducks on days 0, 7, 14, 21, 28, and 35 when treatment started. Sera of the blood samples were isolated immediately^[3] and stored at −20° C. until analysis. 4. Serum DHBV DNA Level Determinations DHBV DNA probe was fluorescent labeled according to the labeling kit protocol from the kit manufacturer (Amersham Pharmacia Biotech Co.). 40 μl duck sera were dot-blotted (1 duplicated dot per sample) onto nitro-cellulose membrane and hybridized with fluorescent-labeled DHBV DNA probe for quantitation^[2]. After completion of hybridization, the blots were developed in CDP-Star fluorimetry reagent RPN3690 and scanned with Vuego Scan (Brisa-620st) scanner. ImageMaster TotalLab v1.11.Ink software was used for quantitative analysis of the blots. Statistical analysis was carried out according to the pair t-test with SPSS software.

[2] = Body weight of rats on high nutrition diet (over-feeding obesity model); format: in vivo, Sprague-Dawley (SD) rats
Procedure: Healthy rats were fed with high nutrition diet for 5 weeks, with or without simultaneous peptide treatment (intramuscular 300 μg/kg/day). Rats on an ordinary diet with saline injection were used as negative control. After 5 weeks of treatment, injection was stopped and the same diet was maintained for another three weeks. Body weight data was collected at once per week interval. Behaviour of the rats was also observed. […] It is concluded that CMS015 at suitable dosage level can reversibly control obesity development induced by over-feeding.
Sprague-Dawley (SD) rats, weighing 145±10 g, were supplied by the Center of Experimental Animal of Guangzhou University of Traditional Chinese Medicine, PR China (certificate No.: 2000A019). Peptides were custom synthesized (of L-amino acids origin) by American Peptide Company, Inc., USA, and were diluted to 10 μg/ml in normal saline. The high and normal nutrition diets were prepared in compliance with the guideline for pre-clinical research of anti-obesity drug, issued by SDA (State Drug Administration), PR China^[1].
Healthy rats were randomized into the experiment, positive control, and negative control groups. 10 rats per group, half male and half female. The experiment group of rats was fed with high nutrition diet for 5 weeks with simultaneous intramuscular injection of 300 μg/kg/day peptide, once per day. Positive control group received the same high nutrition diet but placebo saline injection, while negative control group, used to proof successful establishment of obesity model, received normal nutrition diet and placebo saline injection. After 5 weeks treatment, injection was stopped and the same diet was maintained for another 3 weeks. The rats were weighed at once per week interval. Behaviour of the rats was also observed.
The data were presented as mean±standard deviation. Paired t test or single-factor ANOVA was used for inter and intra group comparison. Statistical significance cut-off was at P≦0.05.

Substance: PTTKTYFPHF [CMS001]
- serum DHBV DNA titre upon termination of treatment ([1]; 50 μg/kg/day i.p. for 4 weeks, then one week observation): rebounded to a value with no statistical difference from that before treatment
- DHBV DNA level (Mean ± Standard Deviation) ([1]; Day 0 (before treatment), CMS001 50 μg/kg/day i.p., lamivudine 50 mg/kg/day oral, saline 26 ± 12): 21 ± 18 10^3 units
- DHBV DNA level (Mean ± Standard Deviation) ([1]; Day 7, CMS001 50 μg/kg/day i.p., lamivudine 50 mg/kg/day oral, saline 45 ± 31): 11 ± 13 10^3 units
- DHBV DNA level (Mean ± Standard Deviation) ([1]; Day 14, CMS001 50 μg/kg/day i.p., lamivudine 50 mg/kg/day oral, saline 49 ± 23): 20 ± 18 10^3 units
- DHBV DNA level (Mean ± Standard Deviation) ([1]; Day 21, CMS001 50 μg/kg/day i.p., lamivudine 50 mg/kg/day oral, saline 102 ± 66): 14 ± 14 10^3 units
- DHBV DNA level (Mean ± Standard Deviation) ([1]; Day 28 (end of 4 weeks treatment), CMS001 50 μg/kg/day i.p., lamivudine 50 mg/kg/day oral, saline 60 ± 38): 5 ± 3* 10^3 units
- DHBV DNA level (Mean ± Standard Deviation) ([1]; Day 35 (one week after termination of treatment), saline 50 ± 43): 18 ± 16 10^3 units

Substance: Pro Ser Ile Vat Gly Arg Pro Arg His Gln Gly Val Met (PSIVGRPRHQGVM; listed as Sus scrofa) [CMS015]
- difference of the treatment and control groups upon termination of peptide treatment ([2]; 300 μg/kg/day i.m. for 5 weeks, then 3 weeks same diet without injection): gradually reduced and became statistically insignificant after three weeks
- body weight ([2]; Female n = 5, Pre-treatment, positive control 133.6 ± 4.6): 129.2 ± 3.3 g
- body weight ([2]; Female, Week 1, 300 μg/kg/day i.m., high nutrition diet, positive control 164.4 ± 8.7): 157.8 ± 8.3 g
- body weight ([2]; Female, Week 2, 300 μg/kg/day i.m., high nutrition diet, positive control 188.0 ± 6.4): 176.0 ± 11.2 g
- body weight ([2]; Female, Week 3, 300 μg/kg/day i.m., high nutrition diet, positive control 208.8 ± 8.2): 196.0 ± 10.5 g
- body weight ([2]; Female, Week 4, 300 μg/kg/day i.m., high nutrition diet, positive control 227.2 ± 8.2): 212.0 ± 13.5 g
- body weight ([2]; Female, Week 5, 300 μg/kg/day i.m., high nutrition diet, positive control 236.6 ± 10.9): 221.4 ± 13.2 g
- body weight ([2]; Female, Week 6 (injection stopped after week 5), positive control 249.4 ± 16.3): 235.6 ± 16.3 g
- body weight ([2]; Female, Week 7 (injection stopped after week 5), positive control 261.2 ± 13.4): 242.2 ± 18.8 g
- body weight ([2]; Female, Week 8 (injection stopped after week 5), positive control 255.6 ± 11.5): 252.8 ± 22.5 g
- body weight ([2]; Male n = 5, Pre-treatment, positive control 145.6 ± 13.6): 145.6 ± 8.5 g
- body weight ([2]; Male, Week 1, 300 μg/kg/day i.m., high nutrition diet, positive control 194.4 ± 14.5): 183.8 ± 10.6 g
- body weight ([2]; Male, Week 2, 300 μg/kg/day i.m., high nutrition diet, positive control 239.6 ± 13.4): 220.6 ± 12.2 g
- body weight ([2]; Male, Week 3, 300 μg/kg/day i.m., high nutrition diet, positive control 265.0 ± 11.8): 239.0 ± 16.0 g
- body weight ([2]; Male, Week 4, 300 μg/kg/day i.m., high nutrition diet, positive control 287.4 ± 17.7): 258.2 ± 18.1 g
- body weight ([2]; Male, Week 5, 300 μg/kg/day i.m., high nutrition diet, positive control 299.4 ± 21.2): 268.8 ± 17.7 g
- body weight ([2]; Male, Week 6 (injection stopped after week 5), positive control 333.4 ± 27.1): 299.4 ± 21.2 g
- body weight ([2]; Male, Week 7 (injection stopped after week 5), positive control 349.2 ± 28.9): 310.4 ± 25.9 g
- body weight ([2]; Male, Week 8 (injection stopped after week 5), positive control 374.4 ± 37.2): 337.4 ± 30.6 g
